Assay results: ChEMBL document CHEMBL3885861, “Open TG-GATES”

Species on record: Rattus norvegicus
Assay: Open TG-GATES - Regimen: Single
Assay type: toxicity, organism-based, Sprague-Dawley
Parameters: regimen Single, gender Male, age 6 weeks
Conditions: in vivo, po, 50 mg/kg, route gavage, dose level Middle; for APTT / Bas / Eos / Fbg / Hb / Ht / Lym / MCH / MCHC / MCV / Mono / Neu / PT / Plat / RBC / Ret / WBC: tissue Blood; for KIDNEY_L / KIDNEY_R / KIDNEY_TOTAL: tissue Kidney; for LIVER: tissue Liver; for A/G / ALP / ALT / AST / BUN / CRE / Ca / Cl / DBIL / GLC / IP / K / LDH / Na / PL / RALB / TBIL / TC / TG / TP / gamma-GTP: tissue Plasma

CC(C)C(=O)Nc1ccc([N+](=O)[O-])c(C(F)(F)F)c1 [FLUTAMIDE]
TERMINAL_BW (3 h): 209.6 g
APTT (3 h): 18.6 s
Bas (3 h): 0%
Eos (3 h): 1%
Fbg (3 h): 216.6 mg/dL
Hb (3 h): 13.4 g/dL
Ht (3 h): 39.1%
Lym (3 h): 73.6%
MCH (3 h): 21.5 pg
MCHC (3 h): 34.2%
MCV (3 h): 63 fL
Mono (3 h): 2.8%
Neu (3 h): 21.4%
PT (3 h): 12.7 s
Plat (3 h): 136.9 x10_4/uL
RBC (3 h): 621 x10_4/ul
Ret (3 h): 7.8%
WBC (3 h): 82.5 x10_2/uL
KIDNEY_L (3 h): 0.9 g
KIDNEY_R (3 h): 0.9 g
KIDNEY_TOTAL (3 h): 1.8 g
LIVER (3 h): 9.6 g
A/G (3 h): 1.7
ALP (3 h): 785.4 IU/L
ALT (3 h): 35.8 IU/L
AST (3 h): 64 IU/L
BUN (3 h): 12 mg/dL
CRE (3 h): 0.4 mg/dL
Ca (3 h): 10.7 mg/dL
Cl (3 h): 103.4 meq/L
DBIL (3 h): 0.1 mg/dL
GLC (3 h): 199.4 mg/dL
IP (3 h): 9.9 mg/dL
K (3 h): 4.1 meq/L
LDH (3 h): 168.4 IU/L
Na (3 h): 140 meq/L
PL (3 h): 158.6 mg/dL
RALB (3 h): 3.5 g/dL
TBIL (3 h): 0.2 mg/dL
TC (3 h): 80.2 mg/dL
TG (3 h): 86.8 mg/dL
TP (3 h): 5.6 g/dL
gamma-GTP (3 h): 1.2 IU/L
TERMINAL_BW (6 h): 209.1 g
APTT (6 h): 18.9 s
Bas (6 h): 0%
Eos (6 h): 0.8%
Fbg (6 h): 220.4 mg/dL
Hb (6 h): 13.2 g/dL
Ht (6 h): 38.3%
Lym (6 h): 75%
MCH (6 h): 21.8 pg
MCHC (6 h): 34.6%
MCV (6 h): 63 fL
Mono (6 h): 3.4%
Neu (6 h): 20.4%
PT (6 h): 13 s
Plat (6 h): 126.7 x10_4/uL
RBC (6 h): 608.4 x10_4/ul
Ret (6 h): 7.8%
WBC (6 h): 89.5 x10_2/uL
KIDNEY_L (6 h): 1 g
KIDNEY_R (6 h): 0.9 g
KIDNEY_TOTAL (6 h): 1.9 g
LIVER (6 h): 8.9 g
A/G (6 h): 1.6
ALP (6 h): 921.6 IU/L
ALT (6 h): 33.4 IU/L
AST (6 h): 68.2 IU/L
BUN (6 h): 7.6 mg/dL
CRE (6 h): 0.4 mg/dL
Ca (6 h): 10.6 mg/dL
Cl (6 h): 101.6 meq/L
DBIL (6 h): 0.082 mg/dL
GLC (6 h): 196 mg/dL
IP (6 h): 9.9 mg/dL
K (6 h): 3.9 meq/L
LDH (6 h): 129.2 IU/L
Na (6 h): 140 meq/L
PL (6 h): 140.8 mg/dL
RALB (6 h): 3.4 g/dL
TBIL (6 h): 0.1 mg/dL
TC (6 h): 79.6 mg/dL
TG (6 h): 40.2 mg/dL
TP (6 h): 5.5 g/dL
gamma-GTP (6 h): 1.2 IU/L
TERMINAL_BW (9 h): 207.5 g
APTT (9 h): 18.7 s
Bas (9 h): 0%
Eos (9 h): 1%
Fbg (9 h): 227 mg/dL
Hb (9 h): 13.1 g/dL
Ht (9 h): 38.6%
Lym (9 h): 76.6%
MCH (9 h): 21.9 pg
MCHC (9 h): 34.1%
MCV (9 h): 64.3 fL
Mono (9 h): 3%
Neu (9 h): 18.6%
PT (9 h): 13 s
Plat (9 h): 135.1 x10_4/uL
RBC (9 h): 601.2 x10_4/ul
Ret (9 h): 8.2%
WBC (9 h): 75 x10_2/uL
KIDNEY_L (9 h): 0.9 g
KIDNEY_R (9 h): 0.9 g
KIDNEY_TOTAL (9 h): 1.8 g
LIVER (9 h): 8.6 g
A/G (9 h): 1.7
ALP (9 h): 922.4 IU/L
ALT (9 h): 30.2 IU/L
AST (9 h): 61.2 IU/L
BUN (9 h): 9.8 mg/dL
CRE (9 h): 0.3 mg/dL
Ca (9 h): 10.3 mg/dL
Cl (9 h): 103.8 meq/L
DBIL (9 h): 0.088 mg/dL
GLC (9 h): 207.4 mg/dL
IP (9 h): 9.9 mg/dL
K (9 h): 3.8 meq/L
LDH (9 h): 123.2 IU/L
Na (9 h): 140.6 meq/L
PL (9 h): 153.2 mg/dL
RALB (9 h): 3.4 g/dL
TBIL (9 h): 0.2 mg/dL
TC (9 h): 81.2 mg/dL
TG (9 h): 53.6 mg/dL
TP (9 h): 5.4 g/dL
gamma-GTP (9 h): 1.2 IU/L
TERMINAL_BW (24 h): 216.8 g
APTT (24 h): 18.2 s
Bas (24 h): 0%
Eos (24 h): 1%
Fbg (24 h): 209.6 mg/dL
Hb (24 h): 13.7 g/dL
Ht (24 h): 40.6%
Lym (24 h): 77.6%
MCH (24 h): 21.6 pg
MCHC (24 h): 33.8%
MCV (24 h): 63.7 fL
Mono (24 h): 3.2%
Neu (24 h): 17%
PT (24 h): 12.9 s
Plat (24 h): 132.9 x10_4/uL
RBC (24 h): 637 x10_4/ul
Ret (24 h): 6.7%
WBC (24 h): 93 x10_2/uL
KIDNEY_L (24 h): 0.9 g
KIDNEY_R (24 h): 0.9 g
KIDNEY_TOTAL (24 h): 1.8 g
LIVER (24 h): 10.5 g
A/G (24 h): 1.5
ALP (24 h): 950.6 IU/L
ALT (24 h): 38.2 IU/L
AST (24 h): 65.8 IU/L
BUN (24 h): 16 mg/dL
CRE (24 h): 0.4 mg/dL
Ca (24 h): 10.5 mg/dL
Cl (24 h): 103.2 meq/L
DBIL (24 h): 0.1 mg/dL
GLC (24 h): 203.4 mg/dL
IP (24 h): 6.8 mg/dL
K (24 h): 3.8 meq/L
LDH (24 h): 145.2 IU/L
Na (24 h): 140.6 meq/L
PL (24 h): 141.2 mg/dL
RALB (24 h): 3.4 g/dL
TBIL (24 h): 0.2 mg/dL
TC (24 h): 80 mg/dL
TG (24 h): 83.4 mg/dL
TP (24 h): 5.7 g/dL
gamma-GTP (24 h): 1 IU/L
